Experimental data as given in patent US9833497B2, “Human originated EGF domain proteins and use of the same” (CHENGDU SOURCEBIO LIMITED-LIABILITY COMPANY, priority 2013, dated 2017).

Columns and labels:
Format in all cases: cell-based
E. coli DH5α = experiment: Antibacterial activity: MIC and growth curve against E. coli DH5α in 96-well plate; settings: minimal inhibitory concentration against E. coli DH5α; 96-well plate, 5×10^5 CFU/mL, 37° C., judged after 8 h
Summary of the method: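 Log-phase bacteria (OD600 ~0.5) resuspended in LB at 5×10^5 CFU/mL, exposed to recombinant protein at 50, 25, 12.5 μg/mL final in triplicate, 37 °C shaking at 175 rpm. OD600 read every 30 min; MIC is lowest concentration showing no growth.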

E. coli BL21 = experiment: MIC against Gram-negative bacteria: E. coli BL21
Summary of the method: (§1)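 The recombinant human-originated EGF domain proteins were serially diluted two-fold against bacteria at 5×10^5 CFU/mL in LB medium. After shaken incubation at 37° C, the lowest concentration with no bacterial growth was recorded as the MIC.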

Pseudomonas aeruginosa = experiment: MIC against Gram-negative bacteria: Pseudomonas aeruginosa
Summary of the method: as §1

Klebsiella pneumonia = experiment: MIC against Gram-negative bacteria: Klebsiella pneumonia
Summary of the method: as §1

Enterobacter cloacae = experiment: MIC against Gram-negative bacteria: Enterobacter cloacae
Summary of the method: as §1

Aeromonas hydrophila = experiment: MIC against Gram-negative bacteria: Aeromonas hydrophila
Summary of the method: as §1

Citrobacter diversus = experiment: MIC against Gram-negative bacteria: Citrobacter diversus
Summary of the method: as §1

Moraxella catarrhalis = experiment: MIC against Gram-negative bacteria: Moraxella catarrhalis
Summary of the method: as §1

Proteus mirabilis = experiment: MIC against Gram-negative bacteria: Proteus mirabilis
Summary of the method: as §1

Proteus vulgaris = experiment: MIC against Gram-negative bacteria: Proteus vulgaris
Summary of the method: as §1

Serratia marcescens = experiment: MIC against Gram-negative bacteria: Serratia marcescens
Summary of the method: as §1

[1] = 10 h cultivation at 37° C., 5×10^5 CFU/mL, two-fold serial dilution
[2] = 96-well plate, 5×10^5 CFU/mL, 37° C., 10 h
[3] = E. coli BL21, 5×10^5 CFU/mL, 10 h cultivation at 37° C.
[4] = Pseudomonas aeruginosa, 5×10^5 CFU/mL, 10 h cultivation at 37° C.
[5] = Klebsiella pneumonia, 5×10^5 CFU/mL, 10 h cultivation at 37° C.
[6] = Enterobacter cloacae, 5×10^5 CFU/mL, 10 h cultivation at 37° C.
[7] = Aeromonas hydrophila, 5×10^5 CFU/mL, 10 h cultivation at 37° C.
[8] = Citrobacter diversus, 5×10^5 CFU/mL, 10 h cultivation at 37° C.
[9] = Moraxella catarrhalis, 5×10^5 CFU/mL, 10 h cultivation at 37° C.
[10] = Proteus mirabilis, 5×10^5 CFU/mL, 10 h cultivation at 37° C.
[11] = Proteus vulgaris, 5×10^5 CFU/mL, 10 h cultivation at 37° C.
[12] = Serratia marcescens, 5×10^5 CFU/mL, 10 h cultivation at 37° C.

PRT1063 (ELSPCRINNGGCQDLCLLTHQGHVNCSCRGGRILQDDLTCR; listed as Homo sapiens)
12.5 µg/mL: MIC (E. coli DH5α) | MIC E. cloacae (Enterobacter cloacae; [1]) | MIC C. diversus (Citrobacter diversus; [1]) | MIC S. marcescens (Serratia marcescens; [1])
50 µg/mL: MIC P. aeruginosa (Pseudomonas aeruginosa; [1]) | MIC A. hydrophila (Aeromonas hydrophila; [1]) | MIC M. catarrhalis (Moraxella catarrhalis; [1])
25 µg/mL: MIC E. coli BL21 (E. coli BL21; [1]) | MIC K. pneumonia (Klebsiella pneumonia; [1]) | MIC P. mirabilis (Proteus mirabilis; [1]) | MIC P. vulgaris (Proteus vulgaris; [1])

PRT1009 (DVDECLDQPCHPTGTAACHSLANAFYCQCLPGHTGQWCE; listed as Homo sapiens)
100 µg/mL: MIC (Serratia marcescens; S. marcescens, 10 h cultivation at 37° C.)
25 µg/mL: MIC (E. coli DH5α) | MIC (Aeromonas hydrophila; A. hydrophila, 10 h cultivation at 37° C.) | MIC (Moraxella catarrhalis; M. catarrhalis, 10 h cultivation at 37° C.) | MIC (Proteus vulgaris; P. vulgaris, 10 h cultivation at 37° C.)
12.5 µg/mL: MIC (E. coli BL21; E. coli BL21, 10 h cultivation at 37° C.) | MIC (Klebsiella pneumonia; K. pneumonia, 10 h cultivation at 37° C.) | MIC (Citrobacter diversus; C. diversus, 10 h cultivation at 37° C.)
50 µg/mL: MIC (Pseudomonas aeruginosa; P. aeruginosa, 10 h cultivation at 37° C.) | MIC (Enterobacter cloacae; E. cloacae, 10 h cultivation at 37° C.) | MIC (Proteus mirabilis; P. mirabilis, 10 h cultivation at 37° C.)

PRT489 (CDNGGTWEQGQCACLPGFSGDRCQLQTRCQNG; listed as Homo sapiens)
50 µg/mL: MIC against P. mirabilis (Proteus mirabilis; [2])
25 µg/mL: MIC against K. pneumonia (Klebsiella pneumonia; [2]) | MIC against A. hydrophila (Aeromonas hydrophila; [2]) | MIC against M. catarrhalis (Moraxella catarrhalis; [2]) | MIC against P. vulgaris (Proteus vulgaris; [2])
12.5 µg/mL: MIC (E. coli DH5α) | MIC against E. coli BL21 (E. coli BL21; [2]) | MIC against P. aeruginosa (Pseudomonas aeruginosa; [2]) | MIC against E. cloacae (Enterobacter cloacae; [2]) | MIC against C. diversus (Citrobacter diversus; [2]) | MIC against S. marcescens (Serratia marcescens; [2])

PRT1485 (DVNECRRPLERRVCHHSCHNTVGSFLCTCRPGFRLRADRVSCE; listed as Homo sapiens)
50 µg/mL: MIC against E. coli BL21 (E. coli BL21; [3]) | MIC against A. hydrophila (Aeromonas hydrophila; [7]) | MIC against M. catarrhalis (Moraxella catarrhalis; [9])
12.5 µg/mL: MIC (E. coli DH5α) | MIC against P. aeruginosa (Pseudomonas aeruginosa; [4]) | MIC against K. pneumonia (Klebsiella pneumonia; [5]) | MIC against E. cloacae (Enterobacter cloacae; [6]) | MIC against C. diversus (Citrobacter diversus; [8]) | MIC against P. mirabilis (Proteus mirabilis; [10]) | MIC against P. vulgaris (Proteus vulgaris; [11]) | MIC against S. marcescens (Serratia marcescens; [12])

PRT1457 (CQCHGHADNCDTTSQPYRCLCSQESFTEGLHCDRCLPLYNDKPFRQGDQVYAFNCKP; listed as Homo sapiens)
100 µg/mL: MIC against K. pneumonia (Klebsiella pneumonia; [5])
12.5 µg/mL: MIC (E. coli DH5α) | MIC against P. aeruginosa (Pseudomonas aeruginosa; [4]) | MIC against E. cloacae (Enterobacter cloacae; [6]) | MIC against A. hydrophila (Aeromonas hydrophila; [7]) | MIC against C. diversus (Citrobacter diversus; [8]) | MIC against M. catarrhalis (Moraxella catarrhalis; [9]) | MIC against P. vulgaris (Proteus vulgaris; [11])
25 µg/mL: MIC against E. coli BL21 (E. coli BL21; [3]) | MIC against P. mirabilis (Proteus mirabilis; [10]) | MIC against S. marcescens (Serratia marcescens; [12])

PRT89 (TNGQCHCKEFHYRPRGSDSCLPCDCYPVGSTSRSCA; listed as Homo sapiens)
50 µg/mL: MIC (μg/mL) E. coli BL21 (E. coli BL21; E. coli BL21, 96-well plate, 5×10^5 CFU/mL, 37° C., 10 h) | MIC (μg/mL) A. hydrophila (Aeromonas hydrophila; Aeromonas hydrophila, 96-well plate, 5×10^5 CFU/mL, 37° C., 10 h) | MIC (μg/mL) P. vulgaris (Proteus vulgaris; Proteus vulgaris, 96-well plate, 5×10^5 CFU/mL, 37° C., 10 h)
25 µg/mL: MIC (E. coli DH5α) | MIC (μg/mL) E. cloacae (Enterobacter cloacae; Enterobacter cloacae, 96-well plate, 5×10^5 CFU/mL, 37° C., 10 h) | MIC (μg/mL) C. diversus (Citrobacter diversus; Citrobacter diversus, 96-well plate, 5×10^5 CFU/mL, 37° C., 10 h) | MIC (μg/mL) P. mirabilis (Proteus mirabilis; Proteus mirabilis, 96-well plate, 5×10^5 CFU/mL, 37° C., 10 h)
12.5 µg/mL: MIC (μg/mL) P. aeruginosa (Pseudomonas aeruginosa; Pseudomonas aeruginosa, 96-well plate, 5×10^5 CFU/mL, 37° C., 10 h) | MIC (μg/mL) K. pneumonia (Klebsiella pneumonia; Klebsiella pneumonia, 96-well plate, 5×10^5 CFU/mL, 37° C., 10 h) | MIC (μg/mL) M. catarrhalis (Moraxella catarrhalis; Moraxella catarrhalis, 96-well plate, 5×10^5 CFU/mL, 37° C., 10 h) | MIC (μg/mL) S. marcescens (Serratia marcescens; Serratia marcescens, 96-well plate, 5×10^5 CFU/mL, 37° C., 10 h)

PRT745 (RQHPCAQDNGGCSHICLVKGDGTTRCSCPMHLVLLQDELSCG; listed as Homo sapiens)
12.5 µg/mL: MIC (μg/mL) K. pneumonia (Klebsiella pneumonia; K. pneumonia, 10 h cultivation at 37° C., 5×10^5 CFU/mL) | MIC (μg/mL) A. hydrophila (Aeromonas hydrophila; A. hydrophila, 10 h cultivation at 37° C., 5×10^5 CFU/mL) | MIC (μg/mL) M. catarrhalis (Moraxella catarrhalis; M. catarrhalis, 10 h cultivation at 37° C., 5×10^5 CFU/mL)
50 µg/mL: MIC (E. coli DH5α) | MIC (μg/mL) P. aeruginosa (Pseudomonas aeruginosa; P. aeruginosa, 10 h cultivation at 37° C., 5×10^5 CFU/mL) | MIC (μg/mL) E. cloacae (Enterobacter cloacae; E. cloacae, 10 h cultivation at 37° C., 5×10^5 CFU/mL) | MIC (μg/mL) C. diversus (Citrobacter diversus; C. diversus, 10 h cultivation at 37° C., 5×10^5 CFU/mL) | MIC (μg/mL) P. vulgaris (Proteus vulgaris; P. vulgaris, 10 h cultivation at 37° C., 5×10^5 CFU/mL)
25 µg/mL: MIC (μg/mL) E. coli BL21 (E. coli BL21; E. coli BL21, 10 h cultivation at 37° C., 5×10^5 CFU/mL) | MIC (μg/mL) P. mirabilis (Proteus mirabilis; P. mirabilis, 10 h cultivation at 37° C., 5×10^5 CFU/mL) | MIC (μg/mL) S. marcescens (Serratia marcescens; S. marcescens, 10 h cultivation at 37° C., 5×10^5 CFU/mL)
